From patent US20130090355A1, “CHEMICAL AGENTS FOR THE PREVENTION OF INHIBITION OR TUMOR METASTASIS” (ALBERT EINSTEIN COLLEGE OF MEDICINE OF YESHIVA UNIVERSITY, priority 2010, published 2013)
“And” between values parts separate entries of the source, which are not always exact repeats. Equal values may be shown once. “Also recorded” adds a separate entry of the source. Read-outs that look alike come from different tables or passages of the source. Values belong to the compound of their own block, whether it stands above or below them.

Key:
C3R/C81S/C86S S100A4 = C3R/C81S/C86S S100A4 (Homo sapiens, UniProt P26447, C3R/C81S/C86S); assay: Myosin-IIA binding to C3R/C81S/C86S S100A4
Sequence of C3R/C81S/C86S S100A4 (P26447 whole entry C3R/C81S/C86S, one chain of several): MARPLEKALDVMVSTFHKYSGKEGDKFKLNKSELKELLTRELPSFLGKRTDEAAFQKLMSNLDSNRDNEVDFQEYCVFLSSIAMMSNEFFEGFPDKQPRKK

MDA-MB-231 cells [1] = assay: MTT cell proliferation / growth inhibition assay; details: for MTT Assay death: MDA-MB-231, 24 hrs
Protocol: However, all compounds were tested in a cell proliferation assay to identify cytotoxic compounds and determine compound concentrations that can be used to examine effects on motility and invasion.
EC50 values were determined from sixteen concentration titrations. Growth inhibition of MDA-MB-231 cells, which express high levels of S100A4, was examined in a 96-well plate MTT assay at eight drug concentrations after treatment for 24 hrs.

[2] = target: S100A4/myosin-IIA interaction (Homo sapiens, UniProt P26447); assay: Fluorescence polarization assay monitoring the S100A4/myosin-IIA interaction with FITC-MIIA^1908-1923 peptide; assay type: binding
Sequence of S100A4/myosin-IIA interaction (P26447 whole entry, one chain of several): as the sequence (P26447 whole entry C3R/C81S/C86S, one chain of several) above, with R3C, S81C, S86C counted along it
Text: An agent that prevents or inhibits the interaction between S100A4 and myosin-IIA may be determined by any method known in the art. For example, a fluorescence polarization assay that monitors the S100A4/myosin-IIA interaction using a fluorescein-tagged myosin-IIA peptide that comprises the minimal S100A4 binding site may be used as described in U.S. application Ser. No. 11/989,901, herein included in full.
A fluorescence polarization assay was developed that monitors the S100A4/myosin-IIA interaction using a fluorescein-tagged myosin-IIA peptide that comprises the minimal S100A4 binding site (FITC-MIIA^1908-1923) (21, 24). […] In collaboration with the Rapid Access to NCI Discovery Resources (R•A•N•D) program, the fluorescence polarization assay was used to screen the LOPAC (1280 compounds) and Maybridge (14,320 compounds) chemical libraries to identify compounds that disrupt the S100A4/myosin-IIA interaction.
EC50 values were determined from sixteen concentration titrations.

MDA-MB-231 cells [3] = assay: Boyden chamber assay of serum-stimulated chemotaxis; assay type: cell-based; details: Homo sapiens; MDA-MB-231 chemotaxis towards serum (5% FBS), 24 hr; read-out: EC50 inhibition of serum-stimulated migration
Protocol: FIG. 4. Boyden chamber assay examining the effects of lead compounds on MDA-MB-231 chemotaxis. Cells were serum starved for 5 hrs and plated into the upper chamber of a transwell in serum-free medium. Complete medium (5% FBS) was added to the lower chamber and the cells were allowed to migrate for 24 hr. Cells that penetrated the filter were stained with DAPI and quantified by fluorescence microscopy using 10 fields per filter.
As proof-of-principle that S100A4 inhibitors affect the motile and invasive capabilities of carcinoma cells, cell migration assays examining the ability of NSC 5069 and XAX 00168 to inhibit chemotaxis of MDA-MB-231 cells towards serum in a Boyden chamber assay were initiated (FIG. 4). Both NSC 5069 and XAX 00168 inhibit serum-stimulated migration to varying extents with EC50 values of approximately 40 and 20 μM for NSC 5069 and XAX 00168, respectively.

wild-type S100A4 = wild-type S100A4 (Homo sapiens, UniProt P26447); assay: Mass spectrum of wild-type S100A4 after treatment with compound (covalent modification)
Sequence of wild-type S100A4 (P26447 whole entry, one chain of several): as the sequence (P26447 whole entry C3R/C81S/C86S, one chain of several) above, with R3C, S81C, S86C counted along it
Text: (§1) FIG. 3A-3D. Mass spectrum of wild-type S100A4 (A) and following treatment with NSC 95397 (B). Mass spectrum of C81S/C86S S100A4 (C) and following treatment with NSC 95397 (D).

C81S/C86S S100A4 = C81S/C86S S100A4 (Homo sapiens, UniProt P26447, C81S/C86S); assay: Mass spectrum of C81S/C86S S100A4 after treatment with compound (covalent modification); details: Cys81 and Cys86 substituted with serine
Sequence of C81S/C86S S100A4 (P26447 whole entry C81S/C86S, one chain of several): as the sequence (P26447 whole entry C3R/C81S/C86S, one chain of several) above, with R3C counted along it
Text: as §1

[4] = Table 1, sixteen concentration titrations, read-out: EC50
[5] = read-out: EC50 (inhibition of the S100A4/myosin-IIA interaction)

Structure (SMILES): CSCC[C@H](NC(=O)[C@H](C)NC(=O)[C@H](CC(=O)O)NC(=S)Nc1ccc2c(c1)C(=O)OC21c2ccc(O)cc2Oc2cc(O)ccc21)C(=O)N[C@@H](CC(N)=O)C(=O)N[C@@H](CCCNC(=N)N)C(=O)N[C@@H](CCC(=O)O)C(=O)N[C@H](C(=O)N[C@@H](CO)C(=O)N[C@@H](CO)C(=O)N[C@@H](CC(C)C)C(=O)N[C@@H](CCCCN)C(=O)N[C@@H](CC(N)=O)C(=O)N[C@@H](CCCCN)C(=O)N[C@@H](CC(C)C)C(=O)N[C@@H](CCCNC(=N)N)C(=O)N[C@@H](CCCNC(=N)N)C(=O)O)C(C)C [FITC-MIIA^1908-1923]
- myosin-IIA binding (C3R/C81S/C86S S100A4): undetectable

- GI50 (MDA-MB-231 cells [1]; Homo sapiens, MDA-MB-231): 190 µM
- IC50 (MDA-MB-231 cells [1]; Homo sapiens, MDA-MB-231, 24 h, read-out: MTT Assay IC50): 190 µM
- EC50 [2, 4]: 46 µM
- EC50 [2, 5]: 38 to 46 µM and 46 µM
- EC50 (MDA-MB-231 cells [3]): ~20 µM
Structure (SMILES): O=C1NC(=S)S/C1=C\c1cc([N+](=O)[O-])ccc1Sc1ccc(C(F)(F)F)cn1 [Maybridge XAX00168, 5-(5-nitro-2{[5-(trifluoromethyl)-2-pyridyl]thio}benzylidene)-2-thioxo-1,3-thiozolan-4-one]

- EC50 [2, 4]: 4.3 µM
Structure (SMILES): [H]/N=C1\C(=O)c2ccccc2-c2ccccc21 [NSC139152, 10-iminophenanthren-9-one]

Structure (SMILES): O=Nc1c(O)c2ccccc2c2ccc([N+](=O)[O-])cc12 [NSC402968]
- EC50 [2, 4]: 17 µM

Structure (SMILES): O=C1c2ccccc2-c2ccccc2C1(Cl)Cl [NSC6339/ NSC135154, 10,10-dichlorophenanthren-9-one]
- MTT Assay death (MDA-MB-231 cells [1]; @ 2.5 μM): 100% death @ 2.5 μM

Structure (SMILES): O=C1C(SCCO)=C(SCCO)C(=O)c2ccccc21 [NSC95397, 2,3-bis(2-hydroxyethylsulfanyl)naphthalene-1,4-dione]
- MTT Assay death (MDA-MB-231 cells [1]; @ 2.5 μM): 100% death @ 2.5 μM
- EC50 [2, 5]: 7.6 µM
- covalent modification of S100A4 (mass) (wild-type S100A4): modification of each monomer at two residues
- covalent modification of S100A4 (mass) (C81S/C86S S100A4): prevented modification

Structure (SMILES): O=C1C(=O)c2cc([N+](=O)[O-])ccc2-c2ccccc21 [NSC5425/ NSC23180, 2-nitrophenanthrene-9,10-dione]
- MTT Assay death (MDA-MB-231 cells [1]; @ 10 μM): 100% death @ 10 μM

Structure (SMILES): O=C1C2=C(SCCS2)C(=O)c2ccccc21 [NSC55480, 2,3-dihydrobenzo[g][1,4]benzodithiine-5,10-dione]
- MTT Assay death (MDA-MB-231 cells [1]; @ 2.5 μM): 100% death @ 2.5 μM

Structure (SMILES): Cc1oc(-c2ccc(Cl)cc2)cc1C(=O)/C(C#N)=C/c1ccccc1 [Maybridge SP00172, 2-{[5-(4-chlorophenyl)-2-methyl-3-furyl]carbonyl}-3-phenylacrylonitrile]
- MTT Assay death (MDA-MB-231 cells [1]; at 50 μM): 100% death at 50 μM
- EC50 [2, 5]: 38 to 46 µM

Structure (SMILES): CSc1sc(C(=O)NN)cc1-c1nc(C)cs1 [Maybridge KM03663, 5-methylsulfanyl-4-(4-methyl-1,3-thiazol-2-yl)thiophene-2-carbohydrazide]
- MTT Assay death (MDA-MB-231 cells [1]; at 150 μM): 100% death at 150 μM
- EC50 [2, 5]: 38 to 46 µM

Structure (SMILES): O=C1C(=O)c2cc(Cl)ccc2-c2ccccc21 [NSC102363, 2-chlorophenanthrene-9,10-dione]
- MTT Assay death (MDA-MB-231 cells [1]; @ 10 μM): 100% death @ 10 μM

Structure (SMILES): O=C(O)CC1OCC=C2CN3CCC45C6=CC(=O)C(=O)C([N+](=O)[O-])=C6NC4C1C2CC35 (stereo not drawn) [NSC5069, Cacotheline]
- MTT Assay toxicity (MDA-MB-231 cells [1]; MDA-MB-231, eight drug concentrations, 24 hrs): did not exhibit toxicity; also recorded: no toxicity detected
- EC50 [2, 4]: 19 µM
- EC50 [2, 5]: 19 µM
- EC50 (MDA-MB-231 cells [3]): ~40 µM

Structure (SMILES): O=C1C(=O)c2ccccc2-c2ccccc21 [NSC10446/ NSC7389, Phenanthrene-9,10-dione]
- MTT Assay death (MDA-MB-231 cells [1]; @ 25 μM): 100% death @ 25 μM

Structure (SMILES): CC(=O)c1ccc2c(c1)-c1ccccc1C(=O)C2=O [NSC400689, 3-acetylphenanthrene-9,10-dione]
- MTT Assay death (MDA-MB-231 cells [1]; @ 2.5 μM): 100% death @ 2.5 μM

Structure (SMILES): O=C1C(=O)c2cccc([N+](=O)[O-])c2-c2ccccc21 [NSC10204, 4-nitrophenanthrene-9,10-dione]
- MTT Assay death (MDA-MB-231 cells [1]; at 100 μM): 80% death at 100 μM
